The results in this text go back to ChEMBL document CHEMBL5252624, “Antifungal evaluation of quinoline-chalcone derivatives combined with FLC against drug-resistant Candida albicans” (2023).

Activity calls are given as the source filed them. The rule behind the calls is not given here.

For assay [1], the system named is Candida albicans. As to the kind of experiment: Antifungal activity against […] assessed as fractional inhibitory concentration index in presence of fluconazole by microdilution method. In kind it is functional. (Broth dilution looks for growth in wells or tubes with falling amounts of substance.)
For assay [2], the system named is Candida albicans. Put plainly: Antifungal activity against Candida albicans ATCC SC5314 assessed as fractional inhibitory concentration index in presence of fluconazole by microdilution method. In kind it is functional.
In assay [3] the test system is Candida albicans. As to the kind of experiment: Antifungal activity against […] assessed as fungal growth inhibition in presence of fluconazole by microdilution method. In kind it is functional.
Assay [4] deals with Candida albicans. As to the kind of experiment: Antifungal activity against Candida albicans ATCC SC5314 assessed as fungal growth inhibition in presence of fluconazole by microdilution method. In kind it is functional.
For assay [5], the system named is Candida albicans. Put plainly: Antifungal activity against Candida albicans ATCC SC5314 assessed as fungal growth inhibition by microdilution method. In kind it is functional.
Assay [6] relates to Candida albicans. As to the kind of experiment: Antifungal activity against […] assessed as fungal growth inhibition by microdilution method. In kind it is functional.
Assay [7] has as its system Candida albicans. Put plainly: Downregulation of ATP level in Candida albicans. In kind it is functional, organism-based.
Assay [8] has as its system Candida albicans. As to the kind of experiment: Downregulation of ATP level in Candida albicans in presence of fluconazole. In kind it is functional, organism-based.
The subject of assay [9] is Candida albicans. Put plainly: Inhibition of mitochondrial membrane potential in Candida albicans in presence of fluconazole. In kind it is functional, organism-based.
Assay [10] deals with Candida albicans. Put plainly: Induction of ROS accumulation in Candida albicans assessed as increase in intracellular ROS level in presence of fluconazole. In kind it is functional, organism-based.
Assay [11] deals with Candida albicans. Put plainly: Induction of ROS accumulation in Candida albicans assessed as increase in intracellular ROS level. In kind it is functional, organism-based.
The subject of assay [12] is Candida albicans. As to the kind of experiment: Antifungal activity against […] assessed as fungal growth inhibition measured for 72 hrs by time kill assay. In kind it is functional, organism-based.
The subject of assay [13] is Candida albicans. As to the kind of experiment: Antifungal activity against […] assessed as fungal growth inhibition in presence of fluconazole by time kill assay. In kind it is functional, organism-based. Conditions: time 72.0 hrs, TDE = time-dependent effect.
Assay [14] has as its system Candida albicans. As to the kind of experiment: Antifungal activity against Candida albicans ATCC SC5314 assessed as reduction in hypha length at 32 microg/ml measured for 4 to 8 hrs in presence fluconazole of by inverted microscopic analysis. Particulars: dose 32.0 µg/ml, time 4-8 hrs. In kind it is functional, organism-based.
Assay [15] deals with Candida albicans. As to the kind of experiment: Antifungal activity against Candida albicans ATCC SC5314 assessed as decrease in number of hypha at 32 microg/ml measured for 4 to 8 hrs in presence fluconazole of by inverted microscopic analysis. In kind it is functional, organism-based. Conditions: dose 32.0 µg/ml, time 4-8 hrs.
In assay [16] the test system is Candida albicans. Put plainly: Inhibition of biofilm formation in Candida albicans ATCC SC5314 at 32 microg/ml in presence fluconazole measured at 24 hrs. In kind it is functional, organism-based. Particulars: dose 32.0 µg/ml.
Assay [17] has as its system Candida albicans. As to the kind of experiment: Inhibition of mitochondrial membrane potential in Candida albicans. In kind it is functional, organism-based.

Regarding `CCN(CC)c1nc2ccccc2cc1/C=C/C(=O)c1ccc(F)cc1`, the FICI80 came out at 0.03 in the assay with Candida albicans [1] and 0.93 in the assay on Candida albicans [2]. Moreover, the MIC80 (as a rule, an inhibitory concentration at the 80% level, which refers to growth in some studies and to a panel of isolates in others) with Candida albicans [3] is 5.36 µg/mL; in the assay with Candida albicans [4], 1.87 µg/mL; in the assay on Candida albicans [5], over 200 µg/mL.

For `CCOc1nc2ccccc2cc1/C=C/C(=O)c1ccc(OC(F)(F)F)cc1`, the FICI80 in the assay with Candida albicans [1] was found to be 0.08; with Candida albicans [2], 16.04. For the same compound, the MIC80 in the assay on Candida albicans [3] was 16 µg/mL; in the assay on Candida albicans [4], 2.9 µg/mL; in the assay with Candida albicans [5], over 200 µg/mL.

In the case of `CCOc1nc2ccccc2cc1/C=C/C(=O)c1ccc(F)cc1`, the FICI80 in the assay with Candida albicans [1] turned out to be 2; with Candida albicans [2], 2.74. In addition, the MIC80 in the assay on Candida albicans [4] is 5.54 µg/mL; in the assay with Candida albicans [5] it was over 200 µg/mL.

On to `OC(Cn1cncn1)(Cn1cncn1)c1ccc(F)cc1F` [FLUCONAZOLE], for which the MIC80 was over 200 µg/mL in the assay with Candida albicans [6] and 2.03 µg/mL in the assay with Candida albicans [5].

For `Cc1cccc(C)c1Oc1nc2ccccc2cc1/C=C/C(=O)c1ccc([N+](=O)[O-])cc1`, the FICI80 in the assay with Candida albicans [1] is on record as 0.23; in the assay with Candida albicans [2], 1.52. The MIC80 in the assay on Candida albicans [4] was 3.07 µg/mL; with Candida albicans [5] it was over 200 µg/mL.

Take `CN1CCN(c2nc3ccccc3cc2/C=C/C(=O)c2ccc(F)cc2)CC1`: the FICI80 in the assay on Candida albicans [1] came out at 0.16; in the assay with Candida albicans [2], 1.82. Further, the MIC80 in the assay on Candida albicans [3] was 6.4 µg/mL; in the assay on Candida albicans [6] it was over 200 µg/mL; with Candida albicans [4], 3.61 µg/mL; in the assay on Candida albicans [5], 85.9 µg/mL. Besides, the result with Candida albicans [7], in the assay on Candida albicans [8], in the assay on Candida albicans [10], in the assay with Candida albicans [11], in the assay on Candida albicans [12] and with Candida albicans [14] was Active. Also, the result with Candida albicans [15] was Active. The inhibition result in the assay on Candida albicans [9] and with Candida albicans [16] was “Active” in each case. In addition, the Activity entry in the assay with Candida albicans [13] was “Tde”.

Take `Cc1cccc(C)c1Oc1nc2ccccc2cc1/C=C/C(=O)c1ccc(OC(F)(F)F)cc1`: the FICI80 with Candida albicans [1] came out at 2; in the assay on Candida albicans [2] it was 1.17. In addition, the MIC80 in the assay with Candida albicans [4] was 2.37 µg/mL; with Candida albicans [5], over 200 µg/mL.

With `CCN(CC)c1nc2ccccc2cc1/C=C/C(=O)c1ccc(OC(F)(F)F)cc1`, the FICI80 in the assay on Candida albicans [1] is reported as 0.02; in the assay with Candida albicans [2] it was 0.92. For the same compound, the figures for the MIC80 in the assay with Candida albicans [3], in the assay on Candida albicans [4] and in the assay with Candida albicans [5] were 4.42 µg/mL, 1.85 µg/mL and over 200 µg/mL, respectively.

For the compound `CN1CCN(c2nc3ccccc3cc2/C=C/C(=O)c2ccc([N+](=O)[O-])cc2)CC1`, the values for the FICI80 with Candida albicans [1] and in the assay with Candida albicans [2] were 0.17 and 1.25, respectively. For the same compound, the MIC80 with Candida albicans [3] is 6.9 µg/mL; in the assay with Candida albicans [4], 4.28 µg/mL; in the assay on Candida albicans [5], over 200 µg/mL. In addition, the outcome in the assay with Candida albicans [7], in the assay on Candida albicans [8], in the assay with Candida albicans [10] and in the assay on Candida albicans [12] was Active. In the assay on Candida albicans [17], the inhibition entry is “inactive”. Besides, in the assay on Candida albicans [11], the result was inactive. Moreover, the Activity entry in the assay on Candida albicans [13] was “Tde”. Further, the inhibition entry with Candida albicans [16] is “Active”.

As to `O=C(/C=C/c1cc2ccccc2nc1N1CCCCC1)c1ccc([N+](=O)[O-])cc1`, the FICI80 is listed as 2 in the assay with Candida albicans [1] and 2.79 in the assay on Candida albicans [2]. Moreover, the MIC80 in the assay with Candida albicans [4] was 5.64 µg/mL; in the assay on Candida albicans [5], over 200 µg/mL.

Consider `Cc1cccc(C)c1Oc1nc2ccccc2cc1/C=C/C(=O)c1ccc(F)cc1`, for which the FICI80 is listed as 0.33 in the assay with Candida albicans [1] and 0.58 with Candida albicans [2]. For the same compound, the MIC80 is 65.1 µg/mL in the assay with Candida albicans [3], 1.17 µg/mL in the assay on Candida albicans [4] and over 200 µg/mL in the assay with Candida albicans [5].

For `O=C(/C=C/c1cc2ccccc2nc1N1CCCCC1)c1ccc(OC(F)(F)F)cc1`, the FICI80 in the assay on Candida albicans [1] turned out to be 2; with Candida albicans [2], 2.42. The MIC80 in the assay on Candida albicans [4] was 4.89 µg/mL; in the assay with Candida albicans [5], over 200 µg/mL.

Turning to `O=C(/C=C/c1cc2ccccc2nc1N1CCCCC1)c1ccc(F)cc1`, the values for the FICI80 in the assay with Candida albicans [1] and with Candida albicans [2] were 2 and 0.48, respectively. The MIC80 in the assay on Candida albicans [4] is 0.96 µg/mL; in the assay with Candida albicans [5] it was over 200 µg/mL.

Turning to `CCOc1nc2ccccc2cc1/C=C/C(=O)c1ccc([N+](=O)[O-])cc1`, the FICI80 in the assay with Candida albicans [1] worked out at 2; with Candida albicans [2], 2.46. Moreover, the MIC80 in the assay on Candida albicans [4] is 4.96 µg/mL; in the assay with Candida albicans [5] it was over 200 µg/mL.

For `CN1CCN(c2nc3ccccc3cc2/C=C/C(=O)c2ccc(OC(F)(F)F)cc2)CC1`, the values for the FICI80 with Candida albicans [1] and in the assay on Candida albicans [2] were 0.23 and 2.35, respectively. In addition, the MIC80 worked out at 6.14 µg/mL in the assay on Candida albicans [3], 17.8 µg/mL in the assay on Candida albicans [6], 4.28 µg/mL in the assay on Candida albicans [4] and 17.6 µg/mL in the assay on Candida albicans [5].

Turning to `CCN(CC)c1nc2ccccc2cc1/C=C/C(=O)c1ccc([N+](=O)[O-])cc1`, the FICI80 was 2 in the assay on Candida albicans [1] and 1.98 with Candida albicans [2]. Further, the figures for the MIC80 in the assay on Candida albicans [4] and in the assay with Candida albicans [5] were 3.99 µg/mL and over 200 µg/mL, respectively.
